The values below come from patent publication US10314826B2, “Methods of treatment of ischemia-induced angiogenesis and arteriogenesis” (UNIVERSITY OF MARYLAND, BALTIMORE, priority 2014, dated 2019).

For test [1], the system named is VSMC. The conditions noted are these: report of Chavala et al [26]; cited from earlier work.
Test [2] deals with endothelial cells. The conditions noted are these: report of Chavala et al [26]; cited from earlier work.
Test [3] concerns endothelial cells. The conditions noted are these: report of Chavala et al [26]; cited from earlier work. This is another data set of the same source.
In test [4] the test system is p53. Particulars: report of Chavala et al [26]; cited from earlier work.
For test [5], the system named is p53. The test can be described thus: Blood flow restoration after hindlimb ischemia by LDPI, p53-/- mice (specificity control). It counts as in vivo, mouse. The conditions noted are these: 2 weeks after hindlimb ischemia. On the procedure: (§1) All experiments and animal husbandry were performed with approval from the University of California, San Francisco and University of Maryland Institutional Animal Care and Use Committees. Wild-type (p53^+/+), p53-null (p53^−/−), and p53^−/+ heterozygoytes were maintained on a C57Bl/6 background. […] For pharmacological modulation of p53 in vivo, quinacrine or vehicle (sterile water) was administered intraperitoneally at 10 mg/kg/day, beginning 5 days prior to surgery, and continued daily post-operatively until the experimental endpoint; PFT-α or vehicle (10% DMSO) was administered intraperitoneally at 2 mg/kg/day every other day beginning two days prior to surgery and continued until the experimental end-point. […]
(§2) Restoration of blood flow after hindlimb ischemia was assessed by laser Doppler perfusion imaging (LDPI) of the hindlimb paws using a PeriScan PIM 3 System (Perimed AB; Stockholm, Sweden) as previously described. Three successive readings were averaged and expressed as an ischemic index (ischemic paw over contralateral paw). For mesenteric artery ligation, blood flow was measured in the HF or CTL artery as volume-flow with a nanoprobe secured around the artery (0.5 mm nanoprobe, Transonic Systems Inc., Ithaca, N.Y.) in anesthetized mice. Flow was averaged over ten minutes and expressed as an arterial index (HF artery over CTL artery).

For test [6], the system named is HIF-1α. As to the kind of experiment: Immunoblot of HIF-1α protein in ischemic tissue after hindlimb ischemia. It counts as in vivo, mouse. On the procedure:
(§3) All experiments and animal husbandry were performed with approval from the University of California, San Francisco and University of Maryland Institutional Animal Care and Use Committees. Wild-type (p53^+/+), p53-null (p53^−/−), and p53^−/+ heterozygoytes were maintained on a C57Bl/6 background. […]
(§4) TA tissue from ischemic and control limbs from were harvested and pulverized in liquid nitrogen. For whole cell lysates, pulverized tissue was incubated in a modified RIPA buffer (50 mM Tris-HCl, pH 7.4; 1% SDS; 1% NP-40; 0.25% sodium deoxycholate; 1 mM PMSF; 1 mM DTT; Complete Mini, EDTA-free protease inhibitor cocktail and PhosStop phosphatase inhibitor tablets (Roche Applied Science; Indianapolis, Ind.), strained, and sonicated 3 times for 10 seconds. Samples were centrifuged at 10,000 G for ten minutes at 4 C, and the supernatant preserved. Protein concentration was measured using a BCA Protein Assay Kit. A total of 20 μg of protein was resolved on a 4-12% Bis-Tris gradiant polyacrylamide gel (Invitrogen; Carlsbad, Calif.) under reduced conditions and transferred to a PVDF membrane (Amersham Biosciences; Pittsburgh, Pa.). […]

In test [7] the test system is VEGF. As to the kind of experiment: Immunoblot of VEGF protein in ischemic tissue after hindlimb ischemia. The format is in vivo, mouse. The protocol: as §3, §4
(In western blotting, separated proteins are transferred to a membrane and probed.)

The target in test [8] is T1, p53 (Mus musculus, UniProt P02340). As to the kind of experiment: Blood flow restoration after hindlimb ischemia by laser Doppler perfusion imaging (LDPI), p53+/+ mice. Also noted: from tissue; host or cells: live C57Bl/6 p53+/+ mice (hindlimb muscle and arteries). It counts as in vivo. Particulars: 2 weeks after hindlimb ischemia, vs vehicle. On the procedure:
as §1, §2

Test [9] addresses T1, p53. As to the kind of experiment: Capillary density in ischemic tibialis anterior muscle after hindlimb ischemia. Particulars: p53+/+ mice, vs vehicle. The format is in vivo. Set-up: from tissue; host or cells: live C57Bl/6 p53+/+ mice (hindlimb muscle and arteries).
Test [10] deals with T1, p53. The test can be described thus: Collateral artery development (arteriogenesis, gracilis artery index) after hindlimb ischemia. Set-up: from tissue; host or cells: live C57Bl/6 p53+/+ mice (hindlimb muscle and arteries). It counts as in vivo. Particulars: p53+/+ mice, vs vehicle. On the procedure:
All experiments and animal husbandry were performed with approval from the University of California, San Francisco and University of Maryland Institutional Animal Care and Use Committees. Wild-type (p53^+/+), p53-null (p53^−/−), and p53^−/+ heterozygoytes were maintained on a C57Bl/6 background. […] For pharmacological modulation of p53 in vivo, quinacrine or vehicle (sterile water) was administered intraperitoneally at 10 mg/kg/day, beginning 5 days prior to surgery, and continued daily post-operatively until the experimental endpoint; PFT-α or vehicle (10% DMSO) was administered intraperitoneally at 2 mg/kg/day every other day beginning two days prior to surgery and continued until the experimental end-point. Mesenteric artery ligation was performed on 8- to 12-week old male wild-type and p53^−/− mice as described previously with modifications. A laparotomy was performed and the small intestine exposed and suffused with warmed saline. […] The control artery (CTL) was considered a straight artery three arteries from the site of ligation. […]
Independent experiments with separate animal cohorts for capillary and larger artery analysis were performed. […] Vascular regions were quantified individually and normalized to the contralateral control muscle. […] Two 5 μm sections in two separate areas 0.5 mm apart were measured and the results averaged. […]

Test [11] addresses T1, p53. As to the kind of experiment: Diabetic ischemia model of hindlimb ischemia. It counts as in vivo. Also noted: relieving ischemia in a clinically relevant diabetic ischemia model of hindlimb ischemia; from tissue; host or cells: animal model of diabetic hindlimb ischemia (not described further). The conditions noted are these: clinically relevant diabetic ischemia model of hindlimb ischemia.

The test system of test [12] is aortic rings. The test can be described thus: Endothelial outgrowth aortic ring assay under hypoxic conditions. It counts as cell-based, mouse. The conditions noted are these: 20 μM quinacrine, vs vehicle-treated controls.
The mark [13] stands for this setting: PFT-α-treated mice, 3 days after surgery.
The mark [14] stands for this setting: PFT-α 2 mg/kg/day every other day intraperitoneally.
[15] abbreviates: quinacrine-treated mice, 7 days after hindlimb ischemia.
The mark [16] stands for this setting: quinacrine 10 mg/kg/day intraperitoneally.

T1 sequence (P02340 whole entry, the tested form may be a part): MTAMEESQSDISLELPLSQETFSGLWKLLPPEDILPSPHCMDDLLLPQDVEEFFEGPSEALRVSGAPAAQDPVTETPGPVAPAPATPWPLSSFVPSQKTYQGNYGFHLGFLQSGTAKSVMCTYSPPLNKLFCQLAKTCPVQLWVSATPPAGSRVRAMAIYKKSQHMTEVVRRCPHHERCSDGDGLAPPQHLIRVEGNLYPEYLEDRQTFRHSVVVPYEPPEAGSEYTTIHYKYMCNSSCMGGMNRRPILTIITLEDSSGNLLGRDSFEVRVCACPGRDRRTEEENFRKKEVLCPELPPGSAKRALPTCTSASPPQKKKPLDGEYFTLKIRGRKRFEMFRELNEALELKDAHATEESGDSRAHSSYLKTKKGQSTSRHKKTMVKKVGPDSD

With `COc1ccc(C2=N[C@@H](c3ccc(Cl)cc3)[C@@H](c3ccc(Cl)cc3)N2C(=O)N2CCNC(=O)C2)c(OC(C)C)c1` [Nutlin-3], in test [1], the “proliferation of VSMC” value is listed as “inhibited proliferation”. Moreover, the “proliferation of endothelial cells” value in test [2] is on record as “inhibited proliferation”. For the same molecule, the “apoptosis in endothelial cells” value in test [3] is on record as “induced apoptosis”. Further, the pathologic retinal angiogenesis result in test [4] is given as “inhibit pathologic retinal angiogenesis”.
`Cc1ccc(C(=O)Cn2c3c(sc2=N)CCCC3)cc1` [PFT-α, pifithrin-α]: the “blood flow restoration after ischemia in p53-/- mice (LDPI)” value in [5] (PFT-α) is “had no effect on blood flow restoration”. Moreover, in [6] (setting [13]), the HIF-1α protein levels result is recorded as “increase”. For the same molecule, in test [7] (setting [13]), the VEGF protein levels entry is on record as “increase”. Besides, the “blood flow restoration after ischemia (LDPI)” value in [8] (setting [14]) was “enhanced blood flow restoration”. In test [9] (setting [14]), the “capillary growth (capillary counts)” value is “No difference in capillary growth was detected”. Moreover, the “collateral vessel formation (gracilis artery index)” value in test [10] (PFT-α 2 mg/kg/day every other day intraperitoneally, 2 weeks after hindlimb ischemia) is on record as “collateral vessel formation increased”. Further, the “arteriogenesis and relief of ischemia” value in [11] is “highly effective at increasing arteriogenesis and relieving ischemia”.
With `CCN(CC)CCCC(C)Nc1c2ccc(Cl)cc2nc2ccc(OC)cc12` (stereo not drawn) [quinacrine], the “blood flow after ischemia in p53-/- mice (LDPI)” value in test [5] (quinacrine) was “had no effect on blood flow”. In [6] (setting [15]), the HIF-1α protein levels result is on record as “suppressed”. Further, the VEGF protein levels result in [7] (setting [15]) is on record as “suppressed”. The “endothelial outgrowth from aortic rings” value in test [12] was “significantly inhibited endothelial outgrowth”. In test [8] (setting [16]), the “blood flow after ischemia (LDPI)” value is “significantly attenuated the improvement in blood flow”. In addition, the capillary density result in test [9] (setting [16]) is given as “did not affect capillary density”. Besides, the “collateral development (larger vessel growth)” value in test [10] (quinacrine 10 mg/kg/day intraperitoneally, hindlimb ischemia) is listed as “did impair collateral development”.
